In general, melting point refers to the temperature, or range, at which the solid turns liquid.

With `CCCCCCCCCCCCCCCCCCOc1cc(OCc2ccccc2)cc(C(=O)OC)c1`, the melting point lay in the range of 62 to 64 °C.
To `CSC(=C(N)c1ccc2oc(C)cc2c1)S(C)=O` (stereo not drawn) belongs 185 to 186 °C; to `COc1ccc(N2CCN(c3ccc(N(C)C4=NC(C)(C)CS4)cc3)CC2)cc1`, 167 °C.
Under `CC(=O)Nc1nc(C)c(-c2ccc(S(C)(=O)=O)cc2)s1` stands 251 to 253 °C; under `O=C(OCc1ccccc1)N1C(=O)[C@H](O)[C@@H]1c1ccccc1`, 105 to 106 °C; under `COc1ccc(-c2nc3c(o2)C(=O)c2ccccc2C3=O)cc1`, more than 260 °C.
To `CC(=O)OCC1c2ccccc2-c2c1c1ccccc1c1ccccc21` (stereo not drawn) belongs 135 to 136 °C.
Molecule `O=C(NCc1cccc2ccccc12)NC1CCN(S(=O)(=O)c2ccccc2C(F)(F)F)C1` (stereo not drawn) came in with a melting point of 117 to 119 °C.
Consider `O=C(Nc1ccc(C2CCCCC2)cc1)c1ncccc1O`, for which the melting point fell in the range of 91 to 93 °C.
Molecule `COc1ccc(-c2c(Cl)c(CN3C(=O)CCC3=O)nc3sc4c(c23)CCN(C(C)=O)C4)cc1` came in with a melting point of 266 to 267 °C.
Under `N#Cc1ccc2nc3cscc3c(=O)n2c1` stands 233 to 234 °C; under `C#CCOC(=O)c1ncn2c1CN(C)C(=O)c1c(Cl)cccc1-2`, 198 to 200 °C.
In turn, `O=C(O)/C=C/c1ccn(C2CCCCCC2)c1` had a melting point of 138 to 140 °C.
Under `CN1CCN(C(=O)[C@H](CCC(N)=O)NC(=O)CCc2ccc(OCc3ccccc3)cc2OCc2ccccc2)CC1` stands 120 to 122 °C; under `Cn1cc(C(=O)NCc2ccc(Cl)cc2)c(=O)c2cc(CN3CC=C(F)CC3)ccc21`, 221 to 223 °C.
For the molecule `CC(C)Cc1ccc(C(C)C(=O)NO)cc1` (stereo not drawn), the melting point is 119 to 121 °C.
Under `CS(=O)(=O)c1ccc(-c2nn(Cc3ccccc3)c(C(F)(F)F)c2-c2ccc(F)cc2)cc1` stands 126 °C; under `CC1(C)Oc2cccc(O)c2O1`, 88 to 90 °C.
For the molecule `O=c1[nH][nH]c2c1c(O)nc1cc(Cl)ccc12`, the melting point was more than 350 °C.
On to `CCn1nc2c(N)nc3ccccc3c2c1CC1(O)CCN(C(C)=O)CC1`, for which the melting point was in the range of 231 to 232 °C.
To `COc1ccc(N2CCN(c3c(C)c(C)c4c(c3C)C(c3ccc(C(F)(F)F)cc3)C(C)(C)O4)CC2)cc1` (stereo not drawn) belongs 208 to 211 °C; to `CC(C)(C)c1ccc2c(c1)c(Sc1ccccc1)c(CC(=O)O)n2Cc1ccc(Cl)cc1`, 148 to 150 °C.
Under `CS(=O)(=O)c1ccc(-c2cnn(-c3ccc(Oc4ccccc4)cc3)c(=O)c2-c2ccc(F)cc2)cc1` stands 118 to 125 °C; under `N#Cc1ccc(OCc2ccsc2)cc1OC(CCC(=O)O)c1c(F)cccc1Cl` (racemic), 128 to 130 °C; under `Cc1ccc(S(=O)(=O)N2[C@H](CCCc3nnnn3C)CC[C@@H]2c2ccc(F)cc2)cc1` (racemic), 153 °C.
Under `CCCc1nc(OC)c(NC(=O)N2CCN(c3cc(C)cc(C)c3)CC2)cc1C` stands 138 to 139 °C; under `Cc1ccc2c(-c3ccc(F)cc3)nc(=O)n(C(C)C)c2c1`, 172 to 174 °C.
Regarding `CN[C@@H]1CN(C(=O)c2nn(C)c3ccccc23)C[C@@H]1C` (relative stereo), the melting point fell in the range of 89 to 91 °C.
Under `CCCOc1ccn2nc(-c3ccccc3)c(-c3ccc(=O)n(C(C)C)n3)c2c1` stands 162 °C; under `O=C(c1cccc(C(F)(F)F)c1)c1ccc[nH]1`, 54 to 56 °C.
To `CCN(CC(O)CCl)c1ccc2c(c1)C(=O)N(C)C2=O` (stereo not drawn) belongs 123 °C; to `Cn1nnc2cc(C(=O)NC3CCCn4c3nc(-c3ccncc3)cc4=O)ccc21` (racemic), 267 to 269 °C; to `N=C(Nc1cccc(NC(=O)/C=C/c2ccc(Cl)cc2)c1)c1ccccc1`, 109 to 110 °C.
Under `c1cc(N2CCCC2)ncc1C12CCN(CC1)C2` stands 119 to 121 °C; under `C#Cc1ccc(C(O)(Cn2cncn2)C(C)(C)C)cc1` (stereo not drawn), 101 °C; under `CCN(CC)CCOc1ccc(Nc2ncc3c(n2)N(Cc2ccccc2)C(=O)N(c2c(Cl)cccc2Cl)C3)cc1`, 106 °C.
The molecule `Nc1cc(F)c(-c2cccnc2)c(F)c1` showed a melting point of 141 to 142 °C.
Under `C=CCOc1cc([N+](=O)[O-])ccc1OC` stands 93 to 94 °C; under `Cc1nc(-c2ccccc2)cc(-c2ccc(C#N)o2)c1C(=O)NCCN1CCOCC1`, 141 to 143 °C; under `C[C@@H](n1cnc2cc(-c3ccc(C(=N)NC#N)cc3)sc2c1=O)[C@](O)(Cn1cncn1)c1ccc(F)cc1F`, 275 to 278 °C.
To `CON1C(=O)CC2(CCN(C(=O)C3=C(C)NC(C)=C([N+](=O)[O-])C3c3ccccc3C(F)(F)F)CC2)C1=O` (stereo not drawn) belongs 261 to 263 °C.
Under `O=[N+]([O-])c1cc(Cl)c(Oc2ccccc2)cc1Oc1ccccc1` stands 95 °C; under `COc1cc(O)c2c(=O)c3c(oc2c1)oc1cc(O)ccc13`, 265 to 268 °C.
`Cc1ccc(Cl)c(Nc2ccccc2-c2nnco2)c1Cl` returned a melting point of 180 to 181 °C.
Under `CCCCc1sc(-c2ccccc2)nc1O` stands 69 to 71 °C.
Under `O=C(O)C(F)c1cc(F)cc(F)c1` (stereo not drawn) stands 90 to 110 °C; under `CCOc1cc2c(O)cc(C)nc2nc1C`, 281 to 284 °C.
To `CCc1cc([N+](=O)[O-])c(NC(CC)CC)c([N+](=O)[O-])c1COC` belongs 28 to 29 °C.
The molecule `CCOCc1cc(OC)c(-c2ccc(C[C@H](NC(=O)c3c(F)cccc3F)C(=O)O)cc2)c(OC)c1` yielded a melting point of 154 to 155 °C.
To `O=C(N[C@H]1CC[C@H](CCN2CCN(c3nccc4c3CCO4)CC2)CC1)c1ccc2c(c1)OCO2` belongs 244 °C.
Under `COc1ccc(Cc2cnc(NCCCCc3ncc(Br)cc3C)[nH]c2=O)cc1` stands 149 to 150 °C.
Under `O=C1C=CC(O)(c2cc3ccccc3n2S(=O)(=O)c2ccccc2)c2ccccc21` (stereo not drawn) stands 175 to 177 °C; under `CCNC(=O)c1cnn(C)c1`, 103 to 106 °C; under `CCc1c(C)[nH]c(=O)c(I)c1Oc1cc(I)cc(CC#N)c1`, 220 °C.
As to `Cc1cccc(-c2ccccc2NC(=N)N(C)C)c1`, the melting point came out at 116 °C.
Under `Cc1csc(C(=O)O)c1NC(=O)OC(C)(C)C` stands 179 to 180 °C.
Molecule `O=C1OC(COc2ccccc2)CN1CCO` (stereo not drawn) had a melting point of 89 to 91 °C.
Under `CC(=O)c1ccc(N)c2c1OCCO2` stands 135 to 136 °C.
`Cc1cc(-c2ccc(Cl)cc2)nnc1Cl` came in with a melting point of 230 to 233 °C.
To `Clc1ccc2[nH]c3c(c2c1)CN(CCc1ccccn1)CC3` belongs 198 to 200 °C; to `COC(=O)CCCc1cc2cc(Cl)ccc2n1S(=O)(=O)c1cccc2ccccc12`, 94 to 97 °C.
To `COc1ccc(NC(=O)c2nnn(Cc3ccc(F)cc3)c2C)cc1OC` belongs 120 °C.
To `CCS(=O)(=O)c1ccc2c(c1)nc(CC(C)(C)C)n2CC1CCCO1` (stereo not drawn) belongs 142 °C.

Values taken from a melting point compilation (Tetko et al.; mined from patent text by program, amines drawn as free bases though some values may be those of a salt).
